Test results as given in patent US20100184677A1, “USE OF THE HUMAN PANCREATIC POLYPEPTIDE AS A THERAPEUTIC AGENT” (priority 2007, published 2010).

Test system: drug-resistant Mycobacterium tuberculosis
Conditions: peptide 10 micrograms per ml, seven days

Structure (SMILES): CC[C@H](C)[C@H](NC(=O)[C@H](Cc1ccc(O)cc1)NC(=O)[C@H](CCCNC(=N)N)NC(=O)[C@H](CCCNC(=N)N)NC(=O)[C@H](CC(C)C)NC(=O)[C@H](CC(=O)O)NC(=O)[C@H](C)NC(=O)[C@H](C)NC(=O)[C@H](Cc1ccc(O)cc1)NC(=O)[C@H](CCC(N)=O)NC(=O)[C@H](C)NC(=O)[C@H](CCSC)NC(=O)[C@H](CCC(N)=O)NC(=O)[C@H](CCC(=O)O)NC(=O)[C@@H]1CCCN1C(=O)[C@@H](NC(=O)[C@H](C)NC(=O)[C@H](CC(N)=O)NC(=O)[C@H](CC(=O)O)NC(=O)CNC(=O)[C@@H]1CCCN1C(=O)[C@H](Cc1ccc(O)cc1)NC(=O)[C@@H](NC(=O)[C@@H]1CCCN1C(=O)[C@H](CCC(=O)O)NC(=O)[C@H](CC(C)C)NC(=O)[C@@H]1CCCN1C(=O)[C@H](C)N)C(C)C)[C@@H](C)O)C(=O)N[C@@H](CC(N)=O)C(=O)N[C@@H](CCSC)C(=O)N[C@@H](CC(C)C)C(=O)N[C@H](C(=O)N[C@@H](CCCNC(=N)N)C(=O)N1CCC[C@H]1C(=O)N[C@@H](CCCNC(=N)N)C(=O)N[C@@H](Cc1ccc(O)cc1)C(N)=O)[C@@H](C)O [Pancreatic polypeptide]
- % inhibition: 0.0%
